# Experiments:
# DRG neurons [1] = test: Axon elongation of cultured DRG neurons treated with inhibitor compounds; type: cell-based, mouse; conditions: for axon regrowth / axon regeneration in DRG neuron culture: one day after compound treatment, A-922500 500 nM, pradigastat 1 μM, PF combination 10 μM each; for axon elongation in dissociated primary DRG neuron culture: Atglistatin 10 μM, KLH-45 10 μM (figure legend), vs DMSO vehicle
# Method: DRG primary culture and replating were performed as previously described. In brief, for primary culture, L4-L6 DRGs from 7-8 weeks wild-type mice of both genders were dissected and then digested in 0.5% collagenase for 1.5 h. After termination of digestion, DRGs were pipetted 20-30 times in a tube for complete dissociation. Neurobasal-A with B27 as a supplement was used as a medium for DRG culture. Virus was added at 1 day in vitro (DIV1) for genetic manipulation. […]
# For replating DRG neuron culture, at DIV9-11 of primary DRG culture, cells were gently pipetted on culture dishes. Cells were flushed by 20-30 rounds of pipetting in each well of a 6-well plate. After all the cells were resuspended, they were replated onto a 24-well plate. Fixation and staining were performed 24 h after replating. Tuj1 staining was used to visualize axons and cell bodies of neurons. The lengths of the longest neurites from each DRG neuron were measured manually by NeuronJ in ImageJ. Average lengths of 10-20 neurites from 3 individual mice were used in each group.
# In the final step of the glycerol phosphate pathway DGAT enzymes catalyze DGs into TGs. To assess the effect of blocking the DGAT enzyme, commercially available, DGAT1 inhibitors were used in culture. A-922500 (500 nM) and pradigastat (1 μM) were individually tested in a culture medium of DRG neurons. A combination of PF-06424439 (10 μM) and PF-046201101 (10 μM) was also tested in a culture medium of DRG neurons. […] Then, a KD experiment was performed by transfecting Dgat1 shRNA (shDgat1) targeting SEQ ID NO: 8, Dgat2 shRNA (shDgat2) targeting SEQ ID NO: 9 into DRG neurons. […] Because axotomy increases Lipin1 expression in RGCs, a study was conducted to determine whether DGAT enzymes were also regulated by axonal injury.
# DRG neurons [2] = test: Lipid droplet formation in cultured DRG neurons (BODIPY staining); type: cell-based, mouse; conditions: cultured adult DRG neurons, three days, vs DMSO vehicle
# Method: DRG primary culture and replating were performed as previously described. In brief, for primary culture, L4-L6 DRGs from 7-8 weeks wild-type mice of both genders were dissected and then digested in 0.5% collagenase for 1.5 h. After termination of digestion, DRGs were pipetted 20-30 times in a tube for complete dissociation. Neurobasal-A with B27 as a supplement was used as a medium for DRG culture. Virus was added at 1 day in vitro (DIV1) for genetic manipulation. Atglistatin (10 μM), KLH-45 (1 μM), paradigastat (1 μM) or A-922500 (500 nM) treatment was used for ATGL, DDHD2 or DGAT1 inhibition.
# For BODIPY staining on cultured DRG neurons, cells were first fixed in 4% PFA for 10 min and permeabilized with 0.1% Triton X-100 in 4% NGS. After cells were blocked, the Tuj1 antibody was applied in blocking buffer and incubated at 4° C. overnight. Coverslips were then washed three times with PBS and incubated with secondary antibodies at room temperature for 2 h. Cells were finally incubated with 200 nM BODIPY (Sigma) in blocking buffer for 30 min before mounting.
# Experiments were performed to manipulate TG lipases in vitro. In cultured adult DRG neurons with vehicle treatment, lipid droplets were barely detected (FIG. 4B), consistent with the notion that neurons constantly turn over TGs with minimum storage. […] Then, the function of TG lipases was examined in axon regeneration in vivo. […]
# [3] = system: sensory axons in the sciatic nerve; test: Sciatic nerve crush, sensory axon regeneration (SCG10 staining); type: in vivo, mouse; conditions: WT mice, i.p. KLH-45 30 mg/kg/day, Atglistatin 40 mg/kg/day, 5 days before and 2 days after injury; two days regrowth
# Method: KLH-45 (30 mg/kg/day) or Atglistatin (40 mg/kg/day) were delivered by intraperitoneal injection for 5 consecutive days before injury and 2 days after injury. The same dosage of DMSO injection was used as a control treatment. Sciatic nerve injury was performed as previously described. Briefly, after an incision was made on the skin at the middle thigh level, muscle was gently dissected to expose the sciatic nerve. Then, the sciatic nerve was crushed for 10 s by forceps (Dumont #2; Fine Science Tools). For the sham group, the sciatic nerve was only exposed but not crushed.
# Sciatic nerve sections with SCG10 staining were used to quantify the regeneration index. A column with a width of 50 pixels was drawn at different distances from the lesion center, and the average intensity of SCG10 staining was measured using ImageJ. The distance between the lesion center and the column with half the intensity of the lesion center was considered as the regeneration index.
# Consistently, Ddhd2 KD in isolated DRG neurons suppressed axon elongation in culture, and as a positive control Lipin1 KD increased the axon length. Then, vehicle KLH-45, or KLH-45 combined with Atglistatin was systematically administered into WT mice. The sciatic nerve was then crushed, and the sensory axons were allowed to regrow for two days before examination. […]
# adult DRG neurons = test: Axon elongation of replated adult DRG neurons after shRNA/AAV treatment (Tuj1 staining, longest neurite); type: cell-based, mouse; conditions: for effect on axon regrowth / axon growth of DRG neurons: shRNA in WT DRG neurons vs control shRNA
# cortical neurons [4] = test: Total TG and PC levels in cortical neurons by enzymatic hydrolysis assays; type: cell-based, mouse; conditions: lipid hydrolysis assay, DGAT1 or DGAT2 depletion
# Method: (§1) Cortical neurons were cultured as previously described. In short, the cortex from E18 C57/B6 mice of both genders was dissected and digested in 0.5 mg/mL papain for 30 min. Then, 100 μL fetal bovine serum (HyClone) was added to inactivate papain. The cells were then placed into Neurobasal medium (Gibco), supplemented with B27 (Gibco) and 1% penicillin-streptomycin (10,000 U/mL; Gibco). AraC (100 nM; Sigma) was used to inhibit glial proliferation in DIV1-DIV3. After 10 days of culture with AAV-scramble, AAV-shLipin1, AAV-shDgat1 or AAV-shDgat2, cells were harvested, and then TG or PC levels were measured according to the manufacturer's protocol (ab65336 and ab83377).
# Because UPLC-MS might not identify all lipid molecular species, the total TG and PC levels were further measured by performing enzymatic hydrolysis assays. TG levels were decreased by 40% after Lipin1 depletion (FIG. 3E). […] Because injury triggers Lipin1 elevation in RGCs, the data on lipid changes after Lipin1 KD indicate that axotomy may program lipid metabolism to increase triglyceride and decrease PL production. This injury-triggered bias in lipid synthesis may contribute to the declined axon growth in CNS neurons. By depleting Lipin1, injured neurons may redirect two arms of the branch and shift lipid storage to membrane lipid production for axon regrowth.
# cortical neurons [5] = test: Lipid profile of cultured cortical neurons by UPLC-MS; type: cell-based, mouse
# Method: as §1
# Lipid extraction was performed using the Folch method. Cortical neurons were lysed in a 2:1 chloroform:methanol mixture. After the upper phase was siphoned, the solvent was dried by line blowing with nitrogen. Lipid extracts were analyzed using a Synapt G2 HDMS mass spectrometer coupled with an ACQUITY UPLC system (Waters, Milford, USA). The UPLC separation was carried out using a Charge Surface Hybrid column (particle size: 1.7 μm; length: 100 mm; i.d.: 2.1 mm). The mobile phase consisted of solvent A (0.1% formic acid in water, v/v) and solvent B (0.1% formic acid in acetonitrile, v/v), each with 10 mM ammonium acetate. The elution gradient conditions were as follows: 0 min, 40% B; 2 min, 43% B; 2-2.1 min, 50% B; 12 min, 54% B; 12.1 min, 70% B; 12.1-18 min, 99% B. The flow rate was 0.2 mL min^−1, and the injection volume was 2 μL. A two minutes post-run time was set to fully equilibrate the column. Column temperature and sample chamber temperature were set to 55° C. and 6° C., respectively. […]
# Because PAP activity is critical for Lipin1-dependent axon growth, it was hypothesized that Lipin1 may control axon regrowth by regulating glycerolipid synthesis in neurons. […] Glycerolipid levels were directly measured after eliminating glial cells by adding cytosine arabinoside (AraC) to the culture. […] Lipid extraction of cortical neurons was analyzed by ultra-performance liquid chromatography-mass spectrometry (UPLC-MS) system. […]
# [6] = after Dgat1 KD, compared to the control shRNA group
compound,measurement,setting,value
O=C(Nc1ccccc1)Nc1ccc(-c2ccc(C(=O)[C@@H]3CCC[C@H]3C(=O)O)cc2)cc1 [A-922500],axon regrowth / axon regeneration in DRG neuron culture,DRG neurons [1],demonstrated axon regrowth
CN(C)C(=O)Nc1cccc(-c2ccc(N(C)C)cc2)c1 [Atglistatin],TG storage in neurons (lipid droplet formation),DRG neurons [2],dramatically increased TG storage
same,axon elongation in dissociated primary DRG neuron culture,DRG neurons [1],significantly inhibited axon elongation
O=C(N(CCc1ccccc1)C1CCCCC1)n1ncc(-c2ccc(OC(F)(F)F)cc2)n1 [KLH-45],TG storage in neurons (lipid droplet formation),DRG neurons [2],dramatically increased TG storage
same,spontaneous sensory axon regeneration after sciatic nerve crush,[3],modestly inhibited
same,axon elongation in dissociated primary DRG neuron culture,DRG neurons [1],significantly inhibited axon elongation
O=C(O)C[C@H]1CC[C@H](c2ccc(-c3ccc(Nc4ccc(C(F)(F)F)nc4)cn3)cc2)CC1 [pradigastat],axon regrowth / axon regeneration in DRG neuron culture,DRG neurons [1],demonstrated axon regrowth
"Lipin1 shRNA: short hairpin RNA against Lipin1, plasmid transfected into DRG neurons (CGGAACTCTGTAGACAGAAT)",axon elongation enhanced by,"adult DRG neurons; shRNA plasmid transfected for three days, replated, fixed 24 h after replating, vs control shRNA",20%
shDgat1: Dgat1 shRNA targeting SEQ ID NO: 8 (GCCCTTCAAGGATATGGACT; the letters are possibly those of the target site),PC content,cortical neurons [4],increased
same,TG level in neurons,cortical neurons [4],decreased the TG level
same,identified TG species levels,cortical neurons [5]; after Dgat1 KD vs control shRNA,decreased
same,PC(29:1) increase,cortical neurons [5]; [6],more than eightfold
same,PC(36:2) increase,cortical neurons [5]; [6],more than eightfold
same,effect on axon regrowth / axon growth of DRG neurons,adult DRG neurons,significantly boosted axon growth
"shDgat2: Dgat2 shRNA targeting SEQ ID NO: 9 (GCTACTTCCGAGACTACTTT; target site or template, no part of the molecule)",PC content,cortical neurons [4],increased
same,TG level in neurons,cortical neurons [4],decreased the TG level
same,effect on axon regrowth / axon growth of DRG neurons,adult DRG neurons,significantly boosted axon growth

# From patent US12016933B2, “Method for stimulating axonal regeneration” (The Hong Kong University of Science and Technology, priority 2020, dated 2024)
